Measurements taken from patent US8603493B2, “Carbosilane dendrimers, preparation method thereof and use of same” (Dendrico, S.L., priority 2005, dated 2013).

Key:
ODN PPT = assay: Stability of the dendriplexes at different pHs; format: physicochemical; conditions: dendriplexes with PPT, 2/1 charge ratio; pHs 2.8; 2.7; 4.7; 5.7; 6.4; 7.4; 8
Method: Stability studies were carried out on the complexes a different pHs, to determine how the changes in pH would affect the complex, since there are different anatomic, tissue or cell localizations in which the pH acidifies or alkalinifies. Examples are stomach ambient acid, the alkali of the pancreatic secretions of the small intestine, or at a cellular level, the endosome-lisosome behaviour, where it changes from a physiological pH (7.35-7.45) to an acid pH around 4. It is interesting to know, therefore, in what pH range the DNA complex could be maintained with the different CBS used. The complexes were formed following the habitual process and volumes were added in excess of different solutions at different pHs. Therefore, for each one of dendrimers Phe, ClNH4, NN, IM8 and IM16, according to Example 31, 7 solutions were prepared of dendriplexes formed with PPT, in a 2/1 charge ratio and with the following pHs: […]; 2.7; 4.7; 5.7; 6.4; 7.4; 8: The results produced are shown in the electrophoresis gels which appear in FIG. 4, wherein the height of the normal ODN migration band is shown with arrows in the lower part of the gels. The samples were loaded from left to right following an increasing pH order. No sample was formed in the wells indicated with an X.

[1] = test system: peripheral blood mononuclear cells (PBMC); assay: Mitochondrial activity: MTT on PBMC; format: cell-based, human; conditions: for Cell viability after incubation with dendrimers according to MTT: 48 hours, relative to untreated control
Method: The toxicity of dendrimers IM8, IM16, ClNH4, NN, Phe and the commercial controls SF (Superfect) and G4 were tested. Different quantities were taken of each one of them so that the final concentrations with which the cells were incubated were 1 μM, 5 μM, 10 μM, 20 μM and 100 μM.
The blood came from adult donors or the umbilical cord of health newborns. Said blood was diluted ½ with PBS and it was centrifuged in a Ficoll gradient. After said centrifugation, the PBMC halo was recovered and two subsequent washing-centrifuging cycles were carried out. The resulting PBMC were resuspended in complete culture medium with 10% FCS, antibiotics and glutamine.
100 μl of 10% complete medium of foetal calf serum, antibiotics and glutamine were added to a volume of 60 μl of RPMI with the corresponding dendrimer tested. 160 μl were then added to the cells seeded in 340 μl, completing a final volume of 500 μl. The cells were incubated in this way for 48 hours and then the effect of the incubation with the dendrimers was evaluated by its visual examination and by the evaluation of the mitochondrial activity.
A curve of mitochondrial activity was performed of the dendrimer concentration after 48 hours. […] It is a […] test based on the selective capacity of the cells viable for reducing 3-(4,5-dimethylthiazol-2-il)-2,5-diphenyl tetrazolium bromide in insoluble formazan crystals. After 48 hours of incubation of the PBMC with different concentrations of dendrimers in a 96-well plate (100,000/well), the supernatant which contained dendrimer was removed and it was replaced by 200 μl of a culture medium without serum or red phenol (Optimem). To avoid the loss of cells in this step and subsequently of formazan, a modification had been made of the protocol, seeding the PBMC in total human plasma fibronectin (Sigma®) at a concentration of 5-10 μg/ml, so that during the 4-hour incubation they fixed to the bottom of the well. In addition to the 200 μl of Optimem, 20 μl of filtered MTT were added to achieve its sterility (Thiazolyl Blue, Sigma®) in PBS pH 7.4 at a concentration of 5 mg/ml to achieve a final concentration per well of 0.5 mg MTT/ml. After 4 hours of incubation at 37° C. with 5% CO2 atmosphere, the plate was centrifuged at 2000 rpm and the supernatant with the excess MTT that had not reacted was subsequently removed. The formazan crystals were observed under a phase contrast microscope and later dissolved with 200 μl of dimethyl sulfoxide (DMSO). The plate was stirred at 700 rpm in an Eppendorf® stirrer-heater to ensure the correct dissolution of said crystals. The concentration of formazan ([A]) was determined by spectrometry using a plate reader at a wavelength of 570 nm with a reference of 690 nm. The spectrophotometry was calibrated to zero using Optimem without cells. The relative cell viability (%) with respect to the control (untreated cells), based on mitochondrial activity, was calculated based on this formula: [A] test/[A] control×100. Each dendrimer concentration was tested in triplicate, following the guidelines of the ATCC.

PBMC [2] = assay: Flow cytometry test (size and complexity; live cells vs apoptosis-necrosis); format: cell-based, human; conditions: 72 hours, same concentrations as Trypan Blue test
Method: The evaluation time on this occasion was 72 hours. The toxicity was evaluated on PBMC, produced in the manner described in Example 38. […] The ODN used was PPT, in the following way: • [ODN PPT] in the complex with the CBS: 2.57 (0.88 μM) • [ODN PPT] in the complex with SF: 0.34 μM • [ODN PPT] in the complex with G4: 1 μM […] The cells were either incubated with said complexes, a mixture of equal volume which contained ODN without CBS, a mixture which contained dendrimer alone, or with a mixture which contained only RPMI+complete medium which was used as negative control. The cells and/or the supernatant were then collected to be analysed by flow cytometry, confocal microscopy or cell DNA extraction. The percentages of cells with size and complexity corresponding to cells in apoptosis-necrosis were compared with the live cells. For this, the size (FW) and the complexity (SD) was evaluated by flow cytometry. To do this, a region was drawn around the cells with FW and SD corresponding to cells in apoptosis-necrosis and another around the cells with FW and SD corresponding to live cells. The percentages of cells present in each slide were compared. The graphics produced are shown in FIG. 15, wherein the X-axis represents the size (FW) and the Y-axis the complexity (SD). […] The cloud of dark cells corresponds to cells in apoptosis necrosis. The live cells are represented in grey.

PBMC [3] = assay: Lymphoproliferative test (tritiated thymidine); format: cell-based, human; conditions: 5 days, average of triplicate
Method: To evaluate the antigenic capacity of CBS dendrimers, a lymphoproliferative test was performed. The experiment was prepared in triplicate in a 96-well flat bottomed plate (100,000 cells per well in 200 μl of complete human AB medium with antibiotics, glutamine and 10% AB serum). […] After 5 days of incubation at 37° C. with 5% atmosphere of CO2 100 μl of supernatant was removed, then adding 100 μL of a medium with an isotopic intercalating agent of DNA, tritiated thymidine (prepared with 10% AB medium and Thymidine 1/100). The plate was then filtered using a Harvester passing its content through a filter, which was left to dry overnight (approx. 16 hours). After this period, a sheet of Methylex® containing scintillation medium was heat-melted, and it was read in a gamma camera to evaluate the number of counts (greater the counts, more proliferation). The results, which are shown below in Table 8, are expressed as tritiated thymidine counts per minute (cpm). Each result of each concentration was performed in triplicate, the value which appears in the table being the average of the 3. The PHA and the control were tested 12 times.

C[N+](C)(C)CCOc1cc(CO[Si](C)(C)CCC[Si](C)(CCC[Si](CCC[Si](C)(CCC[Si](C)(C)OCc2cc(OCC[N+](C)(C)C)cc(OCC[N+](C)(C)C)c2)CCC[Si](C)(C)OCc2cc(OCC[N+](C)(C)C)cc(OCC[N+](C)(C)C)c2)(CCC[Si](C)(CCC[Si](C)(C)OCc2cc(OCC[N+](C)(C)C)cc(OCC[N+](C)(C)C)c2)CCC[Si](C)(C)OCc2cc(OCC[N+](C)(C)C)cc(OCC[N+](C)(C)C)c2)CCC[Si](C)(CCC[Si](C)(C)OCc2cc(OCC[N+](C)(C)C)cc(OCC[N+](C)(C)C)c2)CCC[Si](C)(C)OCc2cc(OCC[N+](C)(C)C)cc(OCC[N+](C)(C)C)c2)CCC[Si](C)(C)OCc2cc(OCC[N+](C)(C)C)cc(OCC[N+](C)(C)C)c2)cc(OCC[N+](C)(C)C)c1.[I-].[I-].[I-].[I-].[I-].[I-].[I-].[I-].[I-].[I-].[I-].[I-].[I-].[I-].[I-].[I-] [Phe, 2G-[Si(OCH2—(C6H3)-3,5-(OCH2CH2NMe3^+I^−)2)]8]
stability of dendrimer-ODN complex at the pHs tested (ODN PPT): stable at all pHs tested | Cell viability after incubation with dendrimers according to MTT ([1]; 1 μM): 83% | Cell viability after incubation with dendrimers according to MTT ([1]; 5 μM): 77% | Cell viability after incubation with dendrimers according to MTT ([1]; 10 μM): 71% | Cell viability after incubation with dendrimers according to MTT ([1]; 20 μM): 54% | Cell viability after incubation with dendrimers according to MTT ([1]; 100 μM): 14% | mitochondrial viability (comparison among dendrimers) ([1]; increasing concentrations of CBS or SF): greater mitochondrial viability | Apoptosis-necrosis (%) (PBMC [2]): 33% | Live cells (%) (PBMC [2]): 61% | Measurement of the scintillation counter (tritiated thymidine counts) (PBMC [3]; 2 μM): 146 cpm | Measurement of the scintillation counter (tritiated thymidine counts) (PBMC [3]; 5 μM): 170 cpm
